The values below come from patent publication US20060122174A1, “Antiviral treatment” (Henderson Morley Research & Development Limited, priority 2001, published 2006).

Where two headings read alike, the source gives them in different places.

The assay relates to type 2 herpes simplex strain 3345. Description: In vitro bioassay: inhibition of virus replication in infected African green monkey kidney cells. The assay is classed as cell-based, type 2 herpes simplex virus. The following applies: for Inhibition of hsv2, Effect of bendrofluazide: 0.25 mg bendrofluazide/ml liquid medium; for inhibition at 1000 µg/mL: frusemide 1 mg/ml, African green monkey kidney cells. The source says: In vitro bioassays were undertaken to follow the anti-viral activity of a diuretic compound. […] Inhibition of virus replication was scored on the scale: […]

Turning to `NS(=O)(=O)c1cc2c(cc1C(F)(F)F)NC(Cc1ccccc1)NS2(=O)=O` (stereo not drawn) [bendrofluazide], the “Inhibition of hsv2, Effect of bendrofluazide” value (from here on “Inhibition … of bendrofluazide”) (High multiplicity of infection) was “++ (40% inhibition)”; the “Inhibition … of bendrofluazide” value (Low multiplicity of infection) is listed as “++++ (80% inhibition)”; the “Inhibition … of bendrofluazide” value (Medium multiplicity of infection) is recorded as “++++ (80% inhibition)”.
As for `NS(=O)(=O)c1cc(C(=O)O)c(NCc2ccco2)cc1Cl` [frusemide, 4-chloro-N-furfuryl-5-sulfamoylanthranilic acid], the inhibition at 1000 µg/mL came out at 0% (Human alphaherpesvirus 2, read-out: Inhibition of hsv2, Effect of frusemide, High multiplicity of infection); 40% (Human alphaherpesvirus 2, read-out: Inhibition of hsv2, Effect of frusemide, Low multiplicity of infection); 40% (Human alphaherpesvirus 2, read-out: Inhibition of hsv2, Effect of frusemide, Medium multiplicity of infection).
`CCCCNC(=O)NS(=O)(=O)c1ccc(C)cc1` [tolbutamide]: the “Inhibition of hsv2, effect of tolbutamide” value reads like this: (High multiplicity of infection, 0.5 mg tolbutamide/ml liquid medium) “+ (20% inhibition)”; (High multiplicity of infection, 5 mg tolbutamide/ml liquid medium) “++ (40% inhibition)”; (High multiplicity of infection, 50 mg tolbutamide/ml liquid medium) “+++ (60% inhibition)”; (Low multiplicity of infection, 0.5 mg tolbutamide/ml liquid medium) “++ (40% inhibition)”; (Low multiplicity of infection, 5 mg tolbutamide/ml liquid medium) “+++ (60% inhibition)”; (Low multiplicity of infection, 50 mg tolbutamide/ml liquid medium) “+++++ (100% inhibition)”. Moreover, the “Inhibition of hsv2, effect of tolbutamide” value is recorded as “+ (20% inhibition)” (Medium multiplicity of infection, 0.5 mg tolbutamide/ml liquid medium); “+++ (60% inhibition)” (Medium multiplicity of infection, 5 mg tolbutamide/ml liquid medium); “++++ (80% inhibition)” (Medium multiplicity of infection, 50 mg tolbutamide/ml liquid medium).

As a reminder, the inhibition is the relative decrease from the control value, in per cent.
